Results on 4 molecules are retold here after publication PMC6778150 (Scientific Reports, 2019).

Non-standard residues stand in square brackets, D forms with d. Residues, ends and D or L forms follow the SMILES beside them. *: point of attachment. Dnp = O=[N+]([O-])c1ccc(*)c([N+](=O)[O-])c1; 2Abz = Nc1ccccc1C(=O)O A value given as a limit tells only on which side of the number the result lay.

Series [1] concerns protealysin (PLN). As to the kind of experiment: 2.5 nM PLN in 10 mM NH4HCO3. To be noted: Serratia proteamaculans, 37 °C, up to 40 min.
In series [2] the test system is thermolysin (TLN). Nature of the series: 7.5 nM TLN in 10 mM NH4HCO3. The conditions noted are these: 37 °C, up to 40 min.
For series [3], the target named is His6-tagged protealysin (Serratia proteamaculans).
Series [4] has as its target thermolysin (UniProt P00800).
The format of series [5] is physicochemical. To be noted: kinetic, from DMSO stock (6 µl + 500 µl), 50 mM Tris-HCl pH 7.4, room temperature, 24 h, spectrophotometric at 365 nm. As for the experimental part: The substrate sorption on labware complicated the measurement of the Abz-RSVIK(Dnp) solubility since the standard approach based on serial dilutions and identification of the linear range of the experimental concentration-dilution factor relationship could not be used. The substrate solubility was evaluated by periodic spectrophotometric quantitation of its dilutions immediately prepared from the stock in DMSO for one day. Up to 130 µM, the substrate solutions remained stable for 24 h (Supplementary Fig. S3); however, starting from 150 µM their optical density decreased with time. Thus, the substrate has reasonable water solubility and can be used in concentrations up to 130 µM.
The stock solutions (6 µl) in DMSO were supplemented with 500 µl of 50 mM Tris-HCl (pH 7.4). The solutions were incubated at room temperature and the concentration changes were controlled spectrophotometrically for 24 h (Supplementary Fig. S3).
Figure S3. Solubility of Abz-RSVIK(Dnp). Different substrate concentrations were prepared in microcentrifuge tubes (SSI). The stock solution was diluted with DMSO 1.3-20 times. The resulting solutions (6 µl) were supplemented with 500 µl of 50 mM Tris-HCl (pH 7.4). […] A. Measured substrate concentrations for all dilutions and time periods. B. Relationship between substrate concentration and stock quantity 5 h after dilution. […]

Substrate in series [6]: CC[C@H](C)[C@H](NC(=O)[C@@H](NC(=O)[C@H](CO)NC(=O)[C@H](CCCNC(=N)N)NC(=O)c1ccccc1N)C(C)C)C(=O)N[C@@H](CCCCNc1ccc([N+](=O)[O-])cc1[N+](=O)[O-])C(=O)O
Nature of the series: Protease activity assay using Abz-RSVIK(Dnp), hydrolysis kinetic parameters, thermolysin. To be noted: other: thermolysin 2.5 nM, 37 °C, 50 mM Tris-HCl pH 7.4, substrate 2–130 mM as printed, fluorescence ex 320/em 420 nm, Michaelis-Menten fit, two independent experiments with triplicates. The series is classed as biochemical. As for the experimental part: Desired substrate concentrations were obtained by dilution of the stock in DMSO in 50 mM Tris-HCl (pH 7.4).
For the activity assay, 100 µl of the substrate solution at 2–130 mM in 50 mM Tris-HCl (pH 7.4) was added into a well of a black 96-well plate. After incubation at 37 °C for 10 min, 25 µl of the substrate were taken away and replaced with 25 µl of the enzyme solution in the same buffer preheated at 37 °C, and time-related fluorescence changes were monitored on an Infinite M200 Pro (Tecan, Switzerland). Measurements were taken at 37 °C every 10 s for 2–5 min at the excitation and emission wavelengths of 320 and 420 nm, respectively. Fluorescence varied linearly for 3 min. The initial hydrolysis rates were determined from the data obtained within the first 95 s of the reaction. The concentrations of PLN and TLN in the reaction mix were 2.5 nM. In parallel with the hydrolysis rate measurements, the control was conducted with the buffer added to a well instead of an enzyme solution. The main goal of this control was to determine the substrate concentration in the reaction mix. After the incubation, the substrate solution was transferred into a spectrophotometer cell to measure its optical density at 365 nm. The concentration calculated from the obtained OD was taken as the initial substrate concentration in the hydrolysis reaction.
A calibration curve was plotted to convert the obtained relative fluorescence data into the hydrolyzed substrate concentration. […] The course of the reaction was followed by fluorescence changes as described above. The hydrolysis was considered as complete when the fluorescence signal remained steady even after an extra portion of the enzyme was added (Supplementary Fig. S4). After the incubation, serial dilutions of the reaction mix were made, introduced into wells of a 96-well plate and fluorescence was measured as described above. 2,4-Dinitrophenyl was quantified spectrophotometrically in each well as described above. The resulting values were used to plot a calibration curve in coordinates of relative fluorescence units, μM. […]

On to Abz-Arg-Ser-Val-Ile-Lys(Dnp), for which the cleaved bond result was “Ser-Val, 20 min” in series [1] and “Ser-Val, 20 min” in series [2]. For the same molecule, the not cleaved result in series [1] and in series [2] was “products remain undetectable after the time period (40 min)” each time.

As to “2-aminobenzoyl-L-arginyl-L-seryl-L-valyl-L-isoleucyl-L-(ε-2,4-dinitrophenyl)lysine (peptide)”, the values for the KM of hydrolysis of Abz-RSVIK(Dnp) at 37 °C (initial rates fitted to the Michaelis-Menten equation; 2.5 nM enzyme, 50 mM Tris-HCl pH 7.4) in series [3] and in series [4] were 35 μM and 33 μM, respectively.

For `CC[C@H](C)[C@H](NC(=O)[C@@H](NC(=O)[C@H](CO)NC(=O)[C@H](CCCNC(=N)N)NC(=O)c1ccccc1N)C(C)C)C(=O)N[C@@H](CCCCNc1ccc([N+](=O)[O-])cc1[N+](=O)[O-])C(=O)O` [Abz-RSVIK(Dnp), 2-aminobenzoyl-L-arginyl-L-seryl-L-valyl-L-isoleucyl-L-(ε-2,4-dinitrophenyl)lysine] (H-[2Abz]RSVIK(Dnp)-OH), the “Solubility: concentration from which optical density decreased with time” value in series [5] is given as at least 150 µM.

B1: thermolysin (TLN) (Bacillus thermoproteolyticus) (protein)
chain: ITGTSTVGVGRGVLGDQKNINTTYSTYYYLQDNTRGNGIFTYDAKYRTTLPGSLWADADNQFFASYDAPAVDAHYYAGVTYDYYKNVHNRLSYDGNNAAIRSSVHYSQGYNNAFWNGSQMVYGDGDGQTFIPLSGGIDVVAHELTHAVTDYTAGLIYQNESGAINEAISDIFGTLVEFYANKNPDWEIGEDVYTPGISGDSLRSMSDPAKYGDPDHYSKRYTGTQDNGGVHINSGIINKAAYLISQGGTHYGVSVVGIGRDKLGKIFYRALTQYLTPTSNFSQLRAAAVQSATDLYGSTSQEVASVKQAFDAVGVK
notes: purchased Serva, Germany
B1: in series [6], the Michaelis-Menten constant (Km) amounted to 33 ± 8 µM, the kcat was found to be 7 ± 1 s⁻¹ and the kcat/Km is 210000 ± 60000 M⁻¹ s⁻¹.

The Km is the concentration of substrate that gives half-maximal velocity. Usually kcat stands for the maximal rate divided by the concentration of active sites. By kcat/Km is commonly meant the second-order rate constant that governs catalysis at low substrate concentration.
